This experiment deals with T1, sulfamidase (wild-type mouse DBS) (Mus musculus, UniProt Q9EQ08).
T1 sequence (Q9EQ08 23-502): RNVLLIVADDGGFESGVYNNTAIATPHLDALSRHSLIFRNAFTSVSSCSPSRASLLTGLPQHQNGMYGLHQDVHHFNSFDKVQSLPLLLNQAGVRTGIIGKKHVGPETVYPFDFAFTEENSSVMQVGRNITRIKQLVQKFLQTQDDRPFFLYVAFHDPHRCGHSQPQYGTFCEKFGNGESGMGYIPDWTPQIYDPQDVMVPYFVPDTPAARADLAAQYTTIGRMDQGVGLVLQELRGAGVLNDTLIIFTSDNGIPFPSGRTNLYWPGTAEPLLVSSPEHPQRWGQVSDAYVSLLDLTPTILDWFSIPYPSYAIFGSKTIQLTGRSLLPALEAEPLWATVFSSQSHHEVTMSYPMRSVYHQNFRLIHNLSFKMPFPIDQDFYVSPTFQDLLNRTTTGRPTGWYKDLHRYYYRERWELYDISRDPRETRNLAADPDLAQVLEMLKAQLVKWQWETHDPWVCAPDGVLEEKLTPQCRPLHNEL
Nature of the experiment: LC-MS/MS product formation in dried blood spot, knockout mouse control. Type of experiment: biochemical. To be noted: 1 mM substrate, otherwise same.

As to `O=S(=O)(O)N[C@H]1[C@@H](Oc2ccc3ccccc3c2)O[C@H](CO)[C@@H](O)[C@@H]1O` [MPS-IIIA-S, 2-sulfamate-2-deoxy-1-α-(2-naphthyl)-glucopyranoside], the “LC-MS/MS product formation in dried blood spot, knockout mouse control” value was “sulfamidase activity was readily detected in a DBS made using blood from a wild-type mouse”.

These data come from article PMC6175634 (Molecular genetics and metabolism, 2018).
